In patent US20100087523A1, “Rupestonic acid derivatives and use thereof” (priority 2008, published 2010):

Assays:
[1] = test system: A-type flu virus (jifang/90-15)
[2] = test system: B-type flu virus (jifang/97-13)

Structure (SMILES)	Activity for inhibiting A-type flu viruses SI (selection index, SI = TC50/IC50) [1]	Activity for inhibiting B-type flu viruses SI (selection index, SI = TC50/IC50) [2]
C=C(C(=O)Oc1ccccc1Cl)C1CCC(C)C2CC(=O)C(C)=C2C1 (stereo not shown) [B-3, Rupestonic (o-chlorophenyl)-ester]	4.3	–
C=C(C(=O)O)[C@H]1CC[C@H](C)[C@@H]2CC(=O)C(C)=C2C1 [Compound 1, rupestonic acid]	–	9.00
C=C(C(=O)Oc1ccc(Br)cc1)C1CCC(C)C2CC(=O)C(C)=C2C1 (stereo not shown) [B-4, Rupestonic (p-bromophenyl)-ester]	4.3	–
C=C(C(=O)OCc1ccccc1Br)C1CCC(C)C2CC(=O)C(C)=C2C1 (stereo not shown) [B-17, Rupestonic (o-bromobenzyl)-ester]	3.9	2.2
C=C(C(=O)OCc1ccc(Cl)cc1)C1CCC(C)C2CC(=O)C(C)=C2C1 (stereo not shown) [B-14, Rupestonic (p-chlorobenzyl)-ester]	3.8	2.5
C=C(C(=O)OCC)C1CCC(C)C2CC(=O)C(C)=C2C1 (stereo not shown) [B-1, Ethyl Rupestonic ester]	4.9	3.8
C=C(C(=O)Nc1ccccc1Br)C1CCC(C)C2CC(=O)C(C)=C2C1 (stereo not shown) [A-5, N(2-bromo-phenyl)-Rupestonic amide]	3.3	–
C=C(C(=O)Oc1ccc(C)cc1)C1CCC(C)C2CC(=O)C(C)=C2C1 (stereo not shown) [B-9, Rupestonic (p-methylphenyl)-ester]	14.3	–
C=C(C(=O)Nc1ccc(Cl)cc1)C1CCC(C)C2CC(=O)C(C)=C2C1 (stereo not shown) [A-2, N(4-chloro-phenyl)-Rupestonic amide]	6.3	4.0
C=C(C(=O)Oc1ccc(Cl)cc1)C1CCC(C)C2CC(=O)C(C)=C2C1 (stereo not shown) [B-2, Rupestonic (p-chlorophenyl)-ester]	12.6	–
C=C(C(=O)OCc1ccc([N+](=O)[O-])cc1)C1CCC(C)C2CC(=O)C(C)=C2C1 (stereo not shown) [B-15, Rupestonic (p-nitryl-benzyl)-ester]	4.6	4.6
NC(=O)c1ncn([C@@H]2O[C@H](CO)[C@@H](O)[C@H]2O)n1 [Ribavirin]	982.8	132.1
CCOC(=O)C1=C[C@@H](OC(CC)CC)[C@H](NC(C)=O)[C@@H](N)C1 [Oseltamivir]	>239.1	–
